Publication PMC4301629 (PLoS ONE, 2015)

Target: T1, α1A-AR (Homo sapiens, UniProt P35348)
T1 sequence (P35348 1-466): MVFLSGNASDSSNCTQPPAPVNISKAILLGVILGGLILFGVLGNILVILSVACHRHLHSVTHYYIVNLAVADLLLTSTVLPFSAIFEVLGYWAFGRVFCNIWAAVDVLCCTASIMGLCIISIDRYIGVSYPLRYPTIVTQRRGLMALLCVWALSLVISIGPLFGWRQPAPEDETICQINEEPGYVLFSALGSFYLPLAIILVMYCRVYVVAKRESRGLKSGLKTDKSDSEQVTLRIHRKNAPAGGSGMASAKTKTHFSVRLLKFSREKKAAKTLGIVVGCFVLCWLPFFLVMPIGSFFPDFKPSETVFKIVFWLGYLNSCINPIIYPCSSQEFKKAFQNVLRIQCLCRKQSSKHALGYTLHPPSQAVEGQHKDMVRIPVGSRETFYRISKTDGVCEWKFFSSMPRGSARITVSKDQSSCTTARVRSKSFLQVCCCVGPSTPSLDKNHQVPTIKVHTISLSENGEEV
Assay: Ca2+ transient response (FLIPR, fluo3) in α1A-AR transduced HEK-293/EBNA cells
Assay type: cell-based
Design: expressed in transfected cells; host or cells: HEK-293/EBNA (baculovirus transduction, NaBu induction)
Procedure: Prior to experiments, cells were transduced with baculovirus strains designed for transient expression of α1A-AR or aldehyde oxidase (negative control). This was performed by incubating cells with virus (MOI 100–150) for 3 to 4 h, followed by exchange into fresh serum free growth medium supplemented with 4 mM sodium butyrate (NaBu). Cells were grown for another 14 to 18 h and then examined for agonist-evoked responses in transient Ca^2+ release, IP accumulation or pERK activation assays. The surface receptor expression density was determined by flow cytometry via immunofluorescence labeling of an N-terminal HA epitope tag on the receptor and radioligand binding in partially purified membranes.
Cells were resuspended in Hank’s balanced salt solution (Invitrogen) supplemented with 2 mM CaCl2, 10 mM HEPES pH 7.4, 2.5 mM probenecid, plus 1g/L each of glucose and bovine serum albumin (BSA), and seeded in poly-D-lysine coated 96-well black plates with transparent bottom (Costar) at a density of 50,000 cells/0.1 mL per well. Cells were then incubated for 1 h at 37°C with an additional 0.1 mL of buffer containing 4 μM fluo3-AM that was diluted from a stock solution containing 1 mM fluo3-AM dye in DMSO with 10% pluronic acid. After dye loading incubation, plates were washed twice with 100 μL of buffer and refilled with 100 μL of assay buffer. In experiments testing the effect of antagonists, 25 μL of buffer from wells of washed cells were replaced with 25 μL of vehicle or 4× antagonist solution. Pre-incubation of ligand with dye-loaded cells proceeded for 5–30 minutes immediately prior to measurements of agonist-evoked responses. Agonist-evoked Ca^2+ mobilization responses of cell populations were monitored at room temperature simultaneously in all wells of the assay plate using the plate-imaging fluorometric reader FLIPR (MDS Analytical Technologies, Sunnyvale, CA). […] The amplitudes of Ca^2+ transient responses are reported as ΔF/F0, or fold-change in Ca^2+ dye fluorescence relative to the baseline signal ΔF/F0 = (F-F0)/F0 +1 (where ΔF is maximal fluorescence intensity observed following agonist application, F0 = baseline fluorescence, or average intensity measured over the 10 s interval prior to agonist application). Image acquisition rates were varied from 1 Hz during the first 100 s of measurements to 0.5 Hz for the remaining time of the recording.
Graphs shown reflect either pooled or representative data (see figure legends). For concentration-response analysis, results from Ca^2+ mobilization experiments were plotted as ΔF/F0 vs. agonist concentration and fit to a sigmoidal concentration-response equation using the GraphPad Prism software package. In cases where biphasic concentration-response curves were observed data were fit to a two-site concentration-response model: F(X)=R0+(Rmax−R0)[Fr1/(1+10^X-logEC50,1)+(1−Fr1)/(1+10^X-logEC50,2)] (1) , where X is the logarithm of the agonist concentration, R0 and Rmax are respectively the response minimum and maximum; Fr1 is the response fraction attributable to receptor characterized by half effective concentration of the first response phase (EC50,1), with the reminder response attributable to the second half effective concentration (EC50,2). For radioligand binding experiments, B max values were calculated from maximum binding using the equation B max = (SB × ([…] + [L])/[L]), where SB is the specific binding expressed as fmol per mg of membrane protein, and [L] is the ligand concentration.

Structure (SMILES): CC(C)NCC(O)c1ccc(O)c(O)c1 (centres unmarked) [Iso, isoproterenol]
- maximal response amplitude ΔF/F0 in presence of ICI 118,551: 1.3
- magnitude ΔF/F0 in presence of RS100329 (10 nM RS100329 pretreatment): 1.2
- ΔF/F0, β2-AR-dependent phase (pertussis toxin 100 ng/mL, 18 h): 1.5
- ΔF/F0, β2-AR-dependent phase (vehicle (no PTX), Fig. 4B): 1.3
- diminution of low potency phase of response in absence of extracellular Ca2+ (α1A-AR transduced cells): approximately 50%
